{"source": "patent US11944624B2", "about": "“Peptide and small molecule agonists of EphA and their uses” (CASE WESTERN RESERVE UNIVERSITY, priority 2017, dated 2024)", "key": {"EphA3": {"molecular_target": "T1, EphA3 (Homo sapiens, UniProt P29320)", "T1 construct": "expressed in transfected cells; host or cells: HEK 293", "T1 sequence (P29320 21-983)": "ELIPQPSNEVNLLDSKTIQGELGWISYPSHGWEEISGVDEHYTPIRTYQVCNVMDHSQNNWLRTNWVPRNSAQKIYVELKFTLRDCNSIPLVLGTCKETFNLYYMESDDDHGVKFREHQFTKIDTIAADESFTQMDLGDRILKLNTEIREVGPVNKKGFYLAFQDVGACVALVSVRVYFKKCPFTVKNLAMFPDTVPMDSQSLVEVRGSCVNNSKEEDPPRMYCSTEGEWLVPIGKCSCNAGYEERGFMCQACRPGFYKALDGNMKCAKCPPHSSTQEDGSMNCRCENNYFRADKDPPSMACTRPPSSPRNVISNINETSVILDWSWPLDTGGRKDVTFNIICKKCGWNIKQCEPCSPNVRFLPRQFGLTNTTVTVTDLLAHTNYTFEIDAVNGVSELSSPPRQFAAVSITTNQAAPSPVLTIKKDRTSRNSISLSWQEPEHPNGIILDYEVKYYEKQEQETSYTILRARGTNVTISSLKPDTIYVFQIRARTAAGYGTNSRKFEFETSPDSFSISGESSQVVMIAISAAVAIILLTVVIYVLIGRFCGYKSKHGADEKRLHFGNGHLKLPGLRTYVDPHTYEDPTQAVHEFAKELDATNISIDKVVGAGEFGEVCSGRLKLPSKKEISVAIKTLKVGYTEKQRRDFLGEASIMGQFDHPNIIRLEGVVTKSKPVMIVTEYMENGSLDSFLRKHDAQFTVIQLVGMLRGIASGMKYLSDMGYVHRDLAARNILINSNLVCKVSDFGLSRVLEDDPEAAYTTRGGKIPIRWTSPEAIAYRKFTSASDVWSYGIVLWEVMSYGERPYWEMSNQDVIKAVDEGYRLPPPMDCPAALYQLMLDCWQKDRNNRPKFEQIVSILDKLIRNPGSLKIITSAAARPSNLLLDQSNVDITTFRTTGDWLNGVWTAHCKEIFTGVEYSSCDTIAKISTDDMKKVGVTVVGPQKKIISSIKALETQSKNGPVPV", "assay": "EphA3 activation in HEK 293 cells overexpressing EphA3", "assay_type": "cell-based", "conditions": "HEK 293 overexpressing EphA3, compared to EphA2 and EphA4", "description": "Cells were plated in 24-well dishes at a density of 100,000 cells/well and grown for 24 hours prior to stimulation with appropriate compounds and ephrins for the given amounts of time. Compounds were prepared in DMSO at 500 times the final concentrations and 0.2% DMSO was used as vehicle control. Following treatment, cells were lysed directly in SDS Gel Loading Buffer and immunoblotted as described previously. […] For immunoprecipitation, 300,000 cells/well were plated in 6-well dishes and lysed in modified RIPA Buffer (20 mM Tris-HCl pH 7.4, 20 mM NaF, 150 mM NaCl, 10% glycerol, 0.1% SDS, 0.5% DCA, 2 mM EDTA, 1% Triton X-100) following treatment. Either 10 μg of ephrin-A1-Fc, or 4 mg of EphA2 mouse monoclonal antibody (Clone D7, Millipore) were used, and mouse IgG was used as a negative control for EphA2 IP. […] For this purpose, HEK 293 cell lines overexpressing EphA1, EphA2, EphA3, EphA4, and EphB3 kinases were utilized."}, "PC-3 cells": {"tested_on": "PC-3 cells", "assay": "Cell rounding of PC-3 cells", "assay_type": "cell-based, human", "design": "dose or concentration left out as unconfirmed", "text": "As we first reported in 2000, EphA2 activation on PC-3 cells by ephrin-A1 induced rapid cell rounding, a phenomenon that is correlated with inhibition of integrin function."}, "[1]": {"tested_on": "MDA-MB-231, A172-A2 and PC3-DAB2IP KD cells", "assay": "Chemotactic cell migration toward hepatocyte growth factor (HGF)", "assay_type": "cell-based", "conditions": "all three cell lines", "text": "One of the well-established functions of Eph receptors is the ligand-dependent repulsive guidance of cell migration. As a ligand-mimicking agonist for EphA2, doxazosin is expected to activate EphA2 on tumor cells and repulse migrating tumor cells in vitro. […] The inhibitory effects were observed when doxazosin was presented either in the bottom chamber, or in both top and bottom chambers in the Transwell assay system. […] Therefore, doxazosin can recapitulate a key function attributed to its native ligands, i.e., negative regulation of cell migration."}, "[2]": {"tested_on": "DU145 and PC-3 cell xenografts", "conditions": "previously shown, independent of α1-adrenoreceptor; cited from earlier work"}, "EphA2": {"molecular_target": "EphA2 (Homo sapiens, UniProt P29317)", "sequence (P29317 24-976)": "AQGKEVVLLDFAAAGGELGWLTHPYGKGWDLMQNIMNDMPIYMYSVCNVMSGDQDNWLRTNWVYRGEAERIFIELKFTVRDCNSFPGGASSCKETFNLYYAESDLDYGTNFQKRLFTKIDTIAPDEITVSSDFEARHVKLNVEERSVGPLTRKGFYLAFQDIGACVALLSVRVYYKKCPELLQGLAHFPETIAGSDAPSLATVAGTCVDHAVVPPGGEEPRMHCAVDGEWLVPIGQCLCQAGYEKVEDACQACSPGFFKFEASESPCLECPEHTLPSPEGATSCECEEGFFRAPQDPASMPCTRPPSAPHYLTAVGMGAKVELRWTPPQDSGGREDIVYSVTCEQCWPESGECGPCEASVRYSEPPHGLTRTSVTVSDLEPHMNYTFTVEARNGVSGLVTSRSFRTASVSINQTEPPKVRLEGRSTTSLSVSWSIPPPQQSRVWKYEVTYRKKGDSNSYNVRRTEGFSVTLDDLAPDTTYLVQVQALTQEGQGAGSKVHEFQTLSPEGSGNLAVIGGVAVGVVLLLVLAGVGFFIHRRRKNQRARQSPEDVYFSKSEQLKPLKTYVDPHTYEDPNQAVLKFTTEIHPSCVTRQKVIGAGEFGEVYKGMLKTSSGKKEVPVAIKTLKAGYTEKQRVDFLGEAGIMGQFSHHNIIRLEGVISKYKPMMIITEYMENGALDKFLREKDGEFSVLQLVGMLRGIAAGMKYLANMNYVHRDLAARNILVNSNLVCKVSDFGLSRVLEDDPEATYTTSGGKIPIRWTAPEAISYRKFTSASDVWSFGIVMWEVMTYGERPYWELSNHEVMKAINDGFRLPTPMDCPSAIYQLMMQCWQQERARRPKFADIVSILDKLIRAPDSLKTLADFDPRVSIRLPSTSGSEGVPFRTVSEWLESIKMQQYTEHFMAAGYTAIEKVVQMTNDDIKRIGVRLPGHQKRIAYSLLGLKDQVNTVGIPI", "assay": "EphA2 internalization in MDA-MB-231 cells (immunofluorescence, Example 2)", "assay_type": "cell-based", "design": "expressed in transfected cells; host or cells: MDA-MB-231 (MDA-231-A2 / MDA-MB-231-A2), puromycin selected", "conditions": "60 min, Doxazosin 50 μM", "protocol": "This was performed using the MDA-MB-231 cell line. This cell line spreads well in culture, thereby facilitating immunofluorescence detection of cell surface and intracellular EphA2 (FIG. 28). […] MDA-MB-231 cells were plated in 24-well plates on 10 mm square coverslips coated with 10 μg/ml fibronectin and incubated 24-48 hrs before treatment with 50 μM Doxazosin and various doses of compound 27 (0.4, 2, 10, 50 μM) in 0.5% DMSO for 1 hr. As another positive control, cells were treated with 2 μg/ml ephrin-A1-Fc. Cells were then washed with PBS and fixed with 4% paraformaldehyde (Electron Microscopy Sciences, Hatfield, PA) on ice for 10 min, followed by washing and permeabilization with 0.4% NP-40 for 10 min on ice. […] Cells were then incubated in primary mouse EphA2 antibody (D7, 1:100) in 0.1% BSA/PBS for 1 hr at room temperature, washed in PBS and BSA/PBS, followed by incubation in secondary donkey anti-mouse Alexa Fluor 488 antibody (1:300) in BSA/PBS for 30 min at room temperature. Cells were washed in PBS and BSA/PBS, followed by mounting in DAPI Mounting Medium (Electron Microscopy Sciences). Images were taken with a Leica microscope."}}}
{"smiles": "COc1cc2nc(N3CCN(C(=O)C4COc5ccccc5O4)CC3)nc(N)c2cc1OC", "note": "(centres unmarked) [Doxazosin, 2-[4-(2,3-Dihydro-1,4-benzodioxine-2-carbonyl)piperazin-1-yl]-6,7-dimethoxyquinazolin-4-amine]", "values": [{"measurement": "EphA3 activation", "setting": "EphA3", "value": "activation of EphA3 was weak"}, {"measurement": "cell rounding", "setting": "PC-3 cells", "value": "caused rounding of PC-3 cells"}, {"measurement": "chemotactic cell migration toward HGF", "setting": "[1]", "value": "dose-dependent inhibition"}, {"measurement": "subcutaneous xenograft growth", "setting": "[2]", "value": "moderately decrease subcutaneous growth of DU145 and PC-3 cell xenografts"}, {"measurement": "EphA2 internalization", "setting": "EphA2", "value": "stimulated significant EphA2 internalization"}]}
